Laboratory results: patent US20160317418A1, “METHOD OF IMPROVING THE APPEARANCE OF SKIN AND COMPOSITIONS THEREFOR” (The Procter & Gamble Company, priority 2015, published 2016)
Entries after “also recorded” stand apart in the source; their conditions may differ.

Assays:
[1] = test system: human neonatal keratinocytes; experiment: Melanosome Uptake Assay (CFDA-labeled melanosomes, flow cytometry); type: cell-based; conditions: for % Uptake: 0.0025 w/v % in keratinocyte medium, fraction of keratinocytes with detectable CFDA, vehicle control 36; for Rate of Melanosome Uptake Versus Control: 0.0025 w/v %, vehicle control = 100%
Experimental: Melanosome uptake was determined as follows. Carboxyfluorescein diacetate (“CFDA”) (available from Sigma, St. Louis, Mo.) labeled melanosomes were prepared by incubating CFDA dye in SKMEL-188 culture cells (available from Sloan Kettering Institute) for 2 days at 37° C. in a THERMO SCIENTIFIC FORMA brand CO2 incubator (available from Fisher Scientific, Waltham, Mass.). On day 3 of the test, melanosomes were isolated from SKMEL-188 cells by step density centrifugation with sucrose solutions layered with different densities, which is well known in the art. Melanosomes were taken from the 1.6 M-2.0 M sucrose layers. The isolated melanosomes were placed in each well of a 6-well plate along with human neonatal keratinocytes (available from Thermo) (approximately 50,000 keratinocytes/well). 2 ml of the appropriate medium (i.e., the test composition, the positive control or the vehicle control) was added to each of the wells to produce […] (i.e., 3 replicates of each of three composition tested). The test composition was made by adding nicotinamide riboside chloride powder (available from Chromadex, Irvine, Calif.) to EPILIFE brand keratinocyte medium to produce a solution of 0.0025 w/v % nicotinamide riboside. The positive control was made by adding niacinamide to EPILIFE brand keratinocyte medium to produce a solution of 0.0025 w/v % niacinamide. Unmodified keratinocyte medium was used as a vehicle control.
The resulting test plates were incubated for two days in EPILIFE brand keratinocyte medium. On day 6 of the test, the keratinocytes were detached from the plates using trypsin and fluorescent-label counted by flow cytometry using an LSRFortessa brand flow cytometer (available from Becton Dickinson, NJ). The percentage of cells that had fluorescence (from CFDA label) was used as a metric to determine melanosome uptake. Keratinocytes containing detectable levels of CFDA were counted as a fraction of all keratinocytes passing through the flow cytometer (indicated as % uptake in Table 2). A higher percentage corresponds to a higher level of melanosome uptake into the keratinocytes.

[2] = test system: HMGB1 protein released from keratinocytes; experiment: In Vitro UV Stress Test: HMGB1 released from UVB-exposed keratinocytes (ELISA); type: cell-based, human; conditions: for HMGB1 Released: 0.001 w/v % after 15 mJ/cm^2 UVB, 24 hours, UV untreated 19.4, no UV 10.5; for effect on amount of HMGB1 protein released by keratinocytes exposed to UVB (in words): compared to the untreated UVB exposed cells
Experimental: This example compares the ability of nicotinamide riboside and niacinamide to reduce the amount of HMGB1 protein released from keratinocytes subjected to stress from ultraviolet (“UV”) radiation. Human neonatal keratinocytes (available from Thermo) were placed in each well of four 12-well plates. Each well also contained 2 ml of EPILIFE brand keratinocyte medium. The plates were incubated at 37° C. in a CO2 incubator until cell confluency reached 70%. At this point, the cells, except for the negative control, were exposed to 15 mJ/cm^2 UVB (i.e., UV radiation with a wavelength of from 315-280 nm) in a BIO-SUN brand UV irradiating system (available from Vilber Lourmat, France). After UVB exposure, the keratinocyte medium in each well was replaced with an appropriate medium (i.e., niacinamide medium, nicotinamide riboside medium or a control medium) to produce the test plates. The test plates were incubated for 24 hours at 37° C. in a CO2 incubator, after which the medium in each cell was removed and the HMGB1 level measured using a conventional HMGB1 ELISA kit (REF # ST51011, available from IBL International, Canada) according to the manufacturer's instructions. The test media were made by adding either niacinamide or nicotinamide riboside to EPILIFE brand keratinocyte medium to produce a 0.001 w/v % solution. The control medium was unmodified keratinocyte medium.

| Molecule | % Uptake [1] [%] | Rate of Melanosome Uptake Versus Control [1] [%] | effect on uptake of melanosomes from melanocytes into keratinocytes (in words) ([1]; compared to the vehicle control) | HMGB1 Released [2] [pg/mL] | effect on amount of HMGB1 protein released by keratinocytes exposed to UVB (in words) [2] |
| --- | --- | --- | --- | --- | --- |
| NC(=O)c1cccnc1 [niacinamide, reference compound] | 26 | 72 | inhibit the rate of melanosome uptake | 17.8 | no significant effect |
| Nicotinamide riboside [NR] | 67 | 186 |  | 11.5 | reduces the amount of HMGB1 protein released from keratinocytes; also recorded: released less HMGB1 protein |
